For the assay, the target named is ALPK1 (Homo sapiens (Human), UniProt Q96QP1). The assay is described as follows: ALPK1 in vitro kinase assay (HTRF of TIFA phosphorylation). It counts as biochemical.
[1] abbreviates: ALPK1 2 nM, TIFA substrate, ADP-Heptose activator, HTRF readout.

Where two headings read alike, the source gives them in different places.

ALPK1, sequence (Q96QP1 whole entry): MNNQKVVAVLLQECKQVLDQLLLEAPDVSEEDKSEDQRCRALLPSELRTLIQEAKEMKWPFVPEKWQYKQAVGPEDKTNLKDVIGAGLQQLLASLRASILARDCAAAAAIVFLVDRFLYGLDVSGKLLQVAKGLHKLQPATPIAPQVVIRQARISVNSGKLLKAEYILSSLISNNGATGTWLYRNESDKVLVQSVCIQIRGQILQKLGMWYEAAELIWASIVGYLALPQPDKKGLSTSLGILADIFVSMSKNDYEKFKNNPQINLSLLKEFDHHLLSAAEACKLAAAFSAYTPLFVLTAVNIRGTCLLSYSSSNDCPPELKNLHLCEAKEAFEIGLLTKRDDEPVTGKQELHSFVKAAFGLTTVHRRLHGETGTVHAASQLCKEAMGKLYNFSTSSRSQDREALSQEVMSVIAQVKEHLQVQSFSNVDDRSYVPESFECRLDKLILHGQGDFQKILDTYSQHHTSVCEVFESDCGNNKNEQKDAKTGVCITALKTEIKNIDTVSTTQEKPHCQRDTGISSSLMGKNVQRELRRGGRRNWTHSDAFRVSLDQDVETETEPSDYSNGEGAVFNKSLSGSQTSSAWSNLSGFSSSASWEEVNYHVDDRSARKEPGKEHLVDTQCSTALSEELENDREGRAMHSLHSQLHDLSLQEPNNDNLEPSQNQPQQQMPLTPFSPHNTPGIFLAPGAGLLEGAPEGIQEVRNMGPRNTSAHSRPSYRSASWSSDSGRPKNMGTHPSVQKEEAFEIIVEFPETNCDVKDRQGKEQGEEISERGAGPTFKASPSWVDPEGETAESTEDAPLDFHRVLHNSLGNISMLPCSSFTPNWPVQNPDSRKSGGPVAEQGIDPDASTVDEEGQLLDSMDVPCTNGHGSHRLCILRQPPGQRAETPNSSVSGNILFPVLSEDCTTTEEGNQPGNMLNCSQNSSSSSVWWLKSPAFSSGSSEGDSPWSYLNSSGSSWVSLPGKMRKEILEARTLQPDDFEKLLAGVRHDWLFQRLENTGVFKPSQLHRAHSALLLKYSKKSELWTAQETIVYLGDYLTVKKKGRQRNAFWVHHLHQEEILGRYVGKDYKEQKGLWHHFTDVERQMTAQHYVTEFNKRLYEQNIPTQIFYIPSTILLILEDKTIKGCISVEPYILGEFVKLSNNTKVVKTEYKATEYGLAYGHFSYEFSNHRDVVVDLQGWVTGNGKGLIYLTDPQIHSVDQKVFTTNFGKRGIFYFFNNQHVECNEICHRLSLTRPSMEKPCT

With `COc1ccc(C(C)(C)c2csc(NC(=O)c3ccc(OCCN4CCNCC4)cc3)n2)cc1` [Example B024, N-(4-(2-(4-methoxyphenyl)propan-2-yl)thiazol-2-yl)-4-(2-(piperazin-1-yl)ethoxy)benzamide], under setting [1], the IC50 was found to be 116 nM.
Still for that read-out and setting: with `O=C(Nc1nc(C2(c3ccc(Br)cc3)CCCC2)cs1)c1c(F)cc(N2CCNCC2)cc1F` [Example C026, N-(4-(1-(4-bromophenyl)cyclopentyl)thiazol-2-yl)-2,6-difluoro-4-(piperazin-1-yl)benzamide] the figure was 437 nM; with `COc1ccc(C(C)(C)c2csc(NC(=O)c3ccc(N4CCC(N)C4)cc3)n2)cc1` (centres unmarked) [Example B041, 4-(3-aminopyrrolidin-1-yl)-N-(4-(2-(4-methoxyphenyl)propan-2-yl)thiazol-2-yl)benzamide], 80 nM; with `Cc1ccc(C(C)(C)c2csc(NC(=O)c3ccc(CN4CCN(CCO)CC4)nc3)n2)cc1` [Example B059, 6-((4-(2-hydroxyethyl)piperazin-1-yl)methyl)-N-(4-(2-(p-tolyl)propan-2-yl)thiazol-2-yl)nicotinamide], 159 nM.
Same read-out and setting: as for `COCC(C)(c1ccc(Br)cc1)c1csc(NC(=O)c2c(F)cc(N3CCNCC3)cc2F)n1` (centres unmarked) [Example C027, N-(4-(2-(4-bromophenyl)-1-methoxypropan-2-yl)thiazol-2-yl)-2,6-difluoro-4-(piperazin-1-yl)benzamide], the figure is 100 nM.
As to `COc1ccc(C(C)(C)c2csc(NC(=O)NCCCC(N)=O)n2)cc1` [Example A114, 4-(3-(4-(2-(4-methoxyphenyl)propan-2-yl)thiazol-2-yl)ureido)butanamide], the half-inhibitory concentration (IC50) was determined as 260 nM.
With `COc1ccc(C(C)(C)c2csc(NC(=O)c3ccc(C(=O)NC4CCN(C)CC4)cc3)n2)cc1` [Example B030, N1-(4-(2-(4-methoxyphenyl)propan-2-yl)thiazol-2-yl)-N4-(1-methylpiperidin-4-yl)terephthalamide], the IC50 under setting [1] was 155 nM.
The same measure, in the same setting: as for `COc1ccc(C(C)(C)c2csc(NC(=O)c3cccc(N4CCN(CCO)CC4)c3)n2)cc1` [Example B007, 3-(4-(2-hydroxyethyl)piperazin-1-yl)-N-(4-(2-(4-methoxyphenyl)propan-2-yl)thiazol-2-yl)benzamide], the figure is 230 nM.
`CC(C)(c1ccc(Br)cc1)c1csc(NC(=O)c2ccc(N3CCNCC3)cc2)n1` [Example B016, N-(4-(2-(4-bromophenyl)propan-2-yl)thiazol-2-yl)-4-(piperazin-1-yl)benzamide]: the IC50 under setting [1] was found to be 60 nM.
Under setting [1], `C#C[C@@](C)(c1ccc(Cl)cc1)c1csc(NC(=O)c2c(F)cc(N3CCC(N)C3)cc2F)n1` (stereo in doubt) [Example B087, 4-(3-aminopyrrolidin-1-yl)-N-(4-(2-(4-chlorophenyl)but-3-yn-2-yl)thiazol-2-yl)-2,6-difluorobenzamide] showed an IC50 of 38 nM.
On the same count and under the same terms, as for `COc1ccc(C(C)(C)c2csc(NC(=O)c3ccc(N4CCN(CCO)CC4)nc3)n2)cc1` [Example B053, 6-(4-(2-hydroxyethyl)piperazin-1-yl)-N-(4-(2-(4-methoxyphenyl)propan-2-yl)thiazol-2-yl)nicotinamide], the figure is 104 nM; as for `CN1CCN(c2cc(F)c(C(=O)Nc3nc(C4(c5ccc(Br)cc5)CCCC4)cs3)c(F)c2)CC1` [Example C030, N-(4-(1-(4-bromophenyl)cyclopentyl)thiazol-2-yl)-2,6-difluoro-4-(4-methylpiperazin-1-yl)benzamide], 1770 nM.
On the same count and under the same terms, as for `C#CC(C)(c1ccc(Br)cc1)c1csc(NC(=O)[C@H]2C[C@@H](CO)C2)n1` (mixture of isomers) [Example D006, rac-(1s,3s)-N-(4-(2-(4-bromophenyl)but-3-yn-2-yl)thiazol-2-yl)-3-(hydroxymethyl)cyclobutanecarboxamide], the figure is 40 nM.
The same measure, in the same setting: as for `C#C[C@@](C)(c1ccc(Cl)cc1)c1csc(NC(=O)c2ccc(N3CCNC(CO)C3)cc2)n1` (stereo in doubt) [Example B077, N-(4-(2-(4-chlorophenyl)but-3-yn-2-yl)thiazol-2-yl)-4-(3-(hydroxymethyl)piperazin-1-yl)benzamide], the figure is 90 nM; as for `COc1ccc(C(C)(C)c2csc(NC(=O)c3ccc(CN4CCN(CCO)CC4)cc3)n2)cc1` [Example B034, 4-((4-(2-hydroxyethyl)piperazin-1-yl)methyl)-N-(4-(2-(4-methoxyphenyl)propan-2-yl)thiazol-2-yl)benzamide], 44 nM; as for `COc1ccc(C(C)(C)c2csc(NC(=O)c3cc(I)cc(I)c3O)n2)cc1` [Example B050, 2-hydroxy-3,5-diiodo-N-(4-(2-(4-methoxyphenyl)propan-2-yl)thiazol-2-yl)benzamide], 77 nM.
Take `C#C[C@@](C)(c1ccc(F)cc1)c1csc(NC(=O)c2c(F)cc(N3CCC(N)C3)cc2F)n1` (stereo in doubt) [Example B090, 4-(3-aminopyrrolidin-1-yl)-2,6-difluoro-N-(4-(2-(4-fluorophenyl)but-3-yn-2-yl)thiazol-2-yl)benzamide]: half-maximal inhibition under setting [1] (IC50) required 107 nM.
Same read-out and setting: with `COc1ccc(C(C)(C)c2csc(NC(=O)c3ccc(NC4CCN(C)CC4)cc3)n2)cc1` [Example B028, N-(4-(2-(4-methoxyphenyl)propan-2-yl)thiazol-2-yl)-4-((1-methylpiperidin-4-yl)amino)benzamide] the figure was 271 nM; with `CC(C)(c1ccc(F)cc1)c1csc(NC(=O)c2c(F)cc(N3CCNCC3)cc2F)n1` [Example C005, 2,6-difluoro-N-(4-(2-(4-fluorophenyl)propan-2-yl)thiazol-2-yl)-4-(piperazin-1-yl)benzamide], 6 nM.
On to `CC(C)(c1ccc(Br)cc1)c1csc(NC(=O)NCc2ccc(N3CCCNCC3)c(F)c2)n1` [Example A197, 1-(4-(1,4-diazepan-1-yl)-3-fluorobenzyl)-3-(4-(2-(4-bromophenyl)propan-2-yl)thiazol-2-yl)urea], for which the IC50 worked out at 67 nM.
As for `CC(c1ccc(Cl)cc1)c1csc(NC(=O)c2c(F)cc(N3CCNCC3)cc2F)n1` (centres unmarked) [Example C003, N-(4-(1-(4-chlorophenyl)ethyl)thiazol-2-yl)-2,6-difluoro-4-(piperazin-1-yl)benzamide], the IC50 under setting [1] came to 11 nM.
Regarding `COc1ccc(CNC(=O)Nc2nc(C(C)(C)c3ccc(Br)cc3)cs2)cc1F` [Example A107, 1-(4-(2-(4-bromophenyl)propan-2-yl)thiazol-2-yl)-3-(3-fluoro-4-methoxybenzyl)urea], half-maximal inhibition (IC50) required 216 nM.
Under setting [1], `C#C[C@](C)(c1ccc(Cl)cc1)c1csc(NC(=O)c2c(F)cc(N3CCNCC3CO)cc2F)n1` (stereo in doubt) [Example B098, N-[4-[1-(4-chlorophenyl)-1-methyl-prop-2-ynyl]thiazol-2-yl]-2,6-difluoro-4-[2-(hydroxymethyl)piperazin-1-yl]benzamide] displayed an IC50 of 20 nM.
Still for that read-out and setting: as for `C#CC(C)(c1ccc(Cl)cc1)c1csc(NC(=O)c2ccc(N3CCNCC3)cc2F)n1` (centres unmarked) [Example B094, N-(4-(2-(4-chlorophenyl)but-3-yn-2-yl)thiazol-2-yl)-2-fluoro-4-(piperazin-1-yl)benzamide], the figure is 151 nM.
As to `Cc1nc(CNC(=O)Nc2nc(C(C)(C)c3ccc(Br)cc3)cs2)cc(N2CCNCC2)n1` [Example A095, 1-(4-(2-(4-bromophenyl)propan-2-yl)thiazol-2-yl)-3-((2-methyl-6-(piperazin-1-yl)pyrimidin-4-yl)methyl)urea], the IC50 was 32 nM.
`CCOCC(C)(c1ccccc1)c1csc(NC(=O)c2c(F)cc(N3CCNCC3)cc2F)n1` (centres unmarked) [Example C031, N-(4-(1-ethoxy-2-phenylpropan-2-yl)thiazol-2-yl)-2,6-difluoro-4-(piperazin-1-yl)benzamide] yielded an IC50 under setting [1] of 642 nM.
`COc1ccc(C(C)(C)c2csc(NC(=O)c3cnc(N4CCNCC4)nc3)n2)cc1` [Example B015, N-(4-(2-(4-methoxyphenyl)propan-2-yl)thiazol-2-yl)-2-(piperazin-1-yl)pyrimidine-5-carboxamide] came in with an IC50 under setting [1] of 161 nM.
As for `CC(C)(c1ccc(Br)cc1)c1csc(NC(=O)NCc2cnc(N3CCC(N)C3)nc2)n1` (centres unmarked) [Example A078, 1-((2-(3-aminopyrrolidin-1-yl)pyrimidin-5-yl)methyl)-3-(4-(2-(4-bromophenyl)propan-2-yl)thiazol-2-yl)urea], the IC50 was 8 nM.
Still for that read-out and setting: as for `COc1ccc(C(C)(C)c2csc(NC(=O)NCc3ccc(N4CCC(O)C4)cc3)n2)cc1` (centres unmarked) [Example A069, 1-(4-(3-hydroxypyrrolidin-1-yl)benzyl)-3-(4-(2-(4-methoxyphenyl)propan-2-yl)thiazol-2-yl)urea], the figure is 269 nM.
For `COC[C@](C)(c1ccccc1)c1csc(NC(=O)c2c(F)cc(N3CCNCC3)cc2F)n1` [Example C017, (R)-2,6-difluoro-N-(4-(1-methoxy-2-phenylpropan-2-yl)thiazol-2-yl)-4-(piperazin-1-yl)benzamide], under setting [1], the IC50 turned out to be 67 nM.
`CC(C)(c1ccc(Br)cn1)c1csc(NC(=O)NCc2ccc(N3CCNCC3)c(F)c2)n1` [Example A057, 1-(4-(2-(5-bromopyridin-2-yl)propan-2-yl)thiazol-2-yl)-3-(3-fluoro-4-(piperazin-1-yl)benzyl)urea] returned an IC50 of 246 nM.
`C#CC(CC)(c1ccc(Br)cc1)c1csc(NC(C)=O)n1` (centres unmarked) [Example D008, N-(4-(3-(4-bromophenyl)pent-1-yn-3-yl)thiazol-2-yl)acetamide] came in with an IC50 under setting [1] of 143 nM.
`COc1ccc(C(C)(C)c2csc(NC(=O)c3cnc(N4CCNCC4)cn3)n2)cc1` [Example B025, N-(4-(2-(4-methoxyphenyl)propan-2-yl)thiazol-2-yl)-5-(piperazin-1-yl)pyrazine-2-carboxamide] displayed an IC50 under setting [1] of 298 nM.
As to `C#C[C@@](C)(c1ccc(OC)cc1)c1csc(NC(=O)c2c(F)cc(N3CCNCC3)cc2F)n1` (stereo in doubt) [Example C036, 2,6-difluoro-N-[4-[1-(4-methoxyphenyl)-1-methyl-prop-2-ynyl]thiazol-2-yl]-4-piperazin-1-yl-benzamide], the IC50 under setting [1] came out at 67 nM.
In turn, `C#CC(C)(c1ccc(F)cc1)c1csc(NC(=O)c2c(F)cc(-c3cnc(CN)cn3)cc2F)n1` (centres unmarked) [Example B104, 4-(5-(aminomethyl)pyrazin-2-yl)-2,6-difluoro-N-(4-(2-(4-fluorophenyl)but-3-yn-2-yl)thiazol-2-yl)benzamide] gave an IC50 under setting [1] of 1470 nM.

For orientation: IC50 means the concentration that gives 50% inhibition. A high value points to weaker potency.

Source of the values: patent US20240109853A1 (Shanghai Yao Yuan Biotechnology Co., Ltd., priority 2020, published 2024).
